This note sets out measurements from ChEMBL document CHEMBL1201862, “PubChem BioAssay data set” (2004).

Some test systems named below: 786-0; OVCAR-4; COLO 205; M14; KM12; RXF 393; HCT-116; CCRF-CEM; Malme-3M; MOLT-4; LOX IMVI; A549; LXFL 529; K562; TK-10; SF-295; SK-OV-3; BT-549; NCI/ADR-RES; MDA-N.
Holding throughout (experiment): NCI tumour cell line growth inhibition, 48 h

Structures are written as SMILES.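 Cultured in 96-well plates, cells were exposed to test compound for 48 hours across five concentrations. GI50 = concentration required for 50% inhibition of growth.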 Activity calls are given as the source filed them. Rule as the data show it: active = GI50 up to about 1.1 µM and inactive = higher.

`CCCCCN(CCCCC)C(=O)[C@H](CCC(=O)O)NC(=O)c1cc2ccccc2[nH]1`: the GI50 in the experiment with 786-0 was 92.7 µM (inactive); in the experiment on OVCAR-4, 61 µM (inactive); in the experiment with COLO 205, > 100 µM (inactive); in the experiment on M14, 59.7 µM (inactive); in the experiment on KM12 it was 50.4 µM (inactive); in the experiment with RXF 393, 33.3 µM (inactive). Moreover, the GI50 in the experiment with HCT-116 is 28.3 µM (inactive); in the experiment with CCRF-CEM it was 33.4 µM (inactive); with Malme-3M, 94.8 µM (inactive); in the experiment on MOLT-4, 24.9 µM (inactive); in the experiment with LOX IMVI it was > 100 µM (inactive); with A549, 88.5 µM (inactive). For the same compound, the GI50 in the experiment on LXFL 529 is 56.6 µM (inactive); in the experiment on K562, 34.8 µM (inactive); with TK-10, > 100 µM (inactive); with SF-295 it was 57.8 µM (inactive); in the experiment with SK-OV-3, > 100 µM (inactive).

Turning to `C1COCCSC2=C(SCCO1)SC(=C1SC3=C(SCCOCCOCCS3)S1)S2`, the GI50 with 786-0 is 45.8 µM (inactive); in the experiment with OVCAR-4, 48.2 µM (inactive); with COLO 205, > 100 µM (inactive); with M14 it was > 100 µM (inactive); in the experiment with KM12, > 100 µM (inactive); in the experiment with RXF 393, 32.8 µM (inactive). Moreover, the GI50 in the experiment on HCT-116 is > 100 µM (inactive); in the experiment with CCRF-CEM it was > 100 µM (inactive); with Malme-3M it was 98.9 µM (inactive); with MOLT-4, > 100 µM (inactive); in the experiment on LOX IMVI, > 100 µM (inactive); in the experiment with A549 it was > 100 µM (inactive). In addition, the GI50 is > 100 µM (inactive) in the experiment on LXFL 529; > 100 µM (inactive) in the experiment with K562; > 100 µM (inactive) in the experiment on TK-10; 50.9 µM (inactive) in the experiment with SF-295; 72.1 µM (inactive) in the experiment with SK-OV-3.

In the case of `O=C(O)\C=C/C=C/C=C/C=C/C(=O)O`, the GI50 with 786-0, in the experiment with OVCAR-4, in the experiment with COLO 205, with M14, with KM12 and in the experiment on RXF 393 was > 100 µM (inactive) in each case. Moreover, the GI50 in the experiment with HCT-116, with CCRF-CEM, with Malme-3M, in the experiment on MOLT-4, in the experiment with LOX IMVI and with A549 was > 100 µM (inactive) each time. In addition, the GI50 in the experiment on LXFL 529, in the experiment on K562, in the experiment on SF-295 and in the experiment on SK-OV-3 was > 100 µM (inactive) throughout.

In the case of `COc1cc2c(c(C)c1O)[C@H]1COc3ccccc3[C@H]1O2`, the GI50 was 16.6 µM (inactive) in the experiment with 786-0; 17.5 µM (inactive) with OVCAR-4; 18.7 µM (inactive) in the experiment with COLO 205; 8.15 µM (inactive) with M14; 24.7 µM (inactive) in the experiment on KM12; 9.06 µM (inactive) in the experiment with RXF 393. In addition, the GI50 in the experiment on HCT-116 is 5.71 µM (inactive); with CCRF-CEM it was 13.6 µM (inactive); with Malme-3M it was 22.1 µM (inactive); with MOLT-4 it was 14.7 µM (inactive); in the experiment on LOX IMVI it was 3.65 µM (inactive); in the experiment on A549, 13.2 µM (inactive). Moreover, the GI50 is 14.6 µM (inactive) in the experiment on LXFL 529; 4.29 µM (inactive) in the experiment with K562; 31.5 µM (inactive) with TK-10; 27 µM (inactive) with SF-295; 31.8 µM (inactive) in the experiment on SK-OV-3.

As to `C/C(=N\O)C(CN1CCCCC1)C(c1ccccc1)c1c(O)c2ccccc2oc1=O` (centres undefined), the GI50 with 786-0, with OVCAR-4, with COLO 205, with M14, in the experiment on RXF 393 and in the experiment with HCT-116 was > 100 µM (inactive) each time. In addition, the GI50 in the experiment with CCRF-CEM was > 10 µM (inactive); in the experiment with Malme-3M, > 100 µM (inactive); with LOX IMVI, > 100 µM (inactive); in the experiment on A549 it was > 100 µM (inactive); with LXFL 529, > 100 µM (inactive); with K562 it was > 10 µM (inactive). Moreover, the values for the GI50 in the experiment on TK-10, in the experiment on SF-295 and in the experiment on SK-OV-3 were > 100 µM (inactive), 54.8 µM (inactive) and > 100 µM (inactive), respectively.

Turning to `N#Cc1sc2nc3c(c(-c4ccccc4)c2c1N)CCCC3`, the GI50 in the experiment with 786-0 was 46 µM (inactive); in the experiment on OVCAR-4, > 100 µM (inactive); in the experiment with M14 it was > 10 µM (inactive); in the experiment on KM12, > 100 µM (inactive); in the experiment with RXF 393, 41.8 µM (inactive); in the experiment on HCT-116 it was 33.2 µM (inactive). Also, the GI50 in the experiment on CCRF-CEM was > 100 µM (inactive); in the experiment on Malme-3M it was > 100 µM (inactive); in the experiment with MOLT-4, > 100 µM (inactive); in the experiment with LOX IMVI it was 48 µM (inactive); with A549 it was > 100 µM (inactive); in the experiment with LXFL 529, > 100 µM (inactive). Also, the GI50 in the experiment with K562 is > 100 µM (inactive); in the experiment on TK-10 it was > 100 µM (inactive); with SF-295, 22.1 µM (inactive); with SK-OV-3 it was 39.4 µM (inactive).

Consider `c1ccc(COc2cccc3cccnc23)cc1`, for which the GI50 in the experiment on 786-0 is > 100 µM (inactive); in the experiment on OVCAR-4, 97.3 µM (inactive); in the experiment on COLO 205, > 100 µM (inactive); in the experiment with M14, > 100 µM (inactive); in the experiment with KM12 it was 61.4 µM (inactive); with RXF 393 it was 42.4 µM (inactive). Moreover, the GI50 is 83.6 µM (inactive) in the experiment on HCT-116; 31.5 µM (inactive) in the experiment with CCRF-CEM; 48.4 µM (inactive) in the experiment with Malme-3M; > 100 µM (inactive) with MOLT-4; 54.5 µM (inactive) with LOX IMVI; > 100 µM (inactive) in the experiment on A549. The GI50 in the experiment on LXFL 529 is 47.8 µM (inactive); in the experiment with K562 it was 55 µM (inactive); in the experiment on TK-10, > 100 µM (inactive); in the experiment with SF-295, > 100 µM (inactive); in the experiment with SK-OV-3, > 100 µM (inactive).

For the compound `CC(=O)OCC1OC(n2cc(I)c(=O)[nH]c2=O)C(OC(C)=O)C(OC(C)=O)C1OC(C)=O` (centres undefined), the GI50 with 786-0, in the experiment with OVCAR-4, in the experiment with COLO 205, in the experiment on M14, in the experiment with KM12 and with RXF 393 was > 100 µM (inactive) each time. The GI50 in the experiment on HCT-116, in the experiment with CCRF-CEM, in the experiment with Malme-3M, with MOLT-4, in the experiment on LOX IMVI and with A549 was > 100 µM (inactive) in each case. Also, the GI50 in the experiment with LXFL 529, with K562, in the experiment on TK-10, with SF-295 and in the experiment on SK-OV-3 was > 100 µM (inactive) each time.

Regarding `O=C1NC2(NC(=O)C1=O)Nc1ccccc1S2`, the GI50 in the experiment with 786-0 is 21.7 µM (inactive); in the experiment on OVCAR-4 it was 40 µM (inactive); with COLO 205 it was 21.6 µM (inactive); in the experiment on M14, 44.5 µM (inactive); with KM12 it was > 80.4 µM (inactive); with RXF 393, > 54.6 µM (inactive). Further, the GI50 in the experiment with HCT-116 is 19.2 µM (inactive); with CCRF-CEM, 20.2 µM (inactive); with Malme-3M it was 97.1 µM (inactive); in the experiment on MOLT-4, 27.5 µM (inactive); with LOX IMVI, 18.9 µM (inactive); in the experiment on A549 it was > 60.5 µM (inactive). The GI50 is 36.6 µM (inactive) with LXFL 529; 39.8 µM (inactive) in the experiment on K562; > 100 µM (inactive) in the experiment on TK-10; 38.6 µM (inactive) in the experiment on SF-295; > 100 µM (inactive) with SK-OV-3.

Take `CCCCOC(=O)NC(=O)c1cn(CCCOC(=O)NCCCCCCNC(=O)OCCCn2cc(C(=O)NC(=O)OCCCC)c(=O)[nH]c2=O)c(=O)[nH]c1=O`: the GI50 in the experiment with 786-0, in the experiment on OVCAR-4, in the experiment with COLO 205, in the experiment with M14, with KM12 and in the experiment on RXF 393 was > 100 µM (inactive) each time. The GI50 with HCT-116 was > 100 µM (inactive); with Malme-3M it was > 100 µM (inactive); in the experiment on LOX IMVI it was > 100 µM (inactive); in the experiment with A549, > 100 µM (inactive); in the experiment on LXFL 529, 90.4 µM (inactive); with K562, > 100 µM (inactive). The GI50 in the experiment with TK-10 was 41.8 µM (inactive); in the experiment with SF-295 it was > 100 µM (inactive); in the experiment with SK-OV-3 it was > 100 µM (inactive).

Regarding `C#CCOCn1cnc2c(S)ncnc21`, the GI50 with 786-0, in the experiment with OVCAR-4, in the experiment with COLO 205, in the experiment with M14, in the experiment with KM12 and with RXF 393 was > 100 µM (inactive) throughout. Also, the GI50 with CCRF-CEM, in the experiment on Malme-3M, in the experiment with LOX IMVI, in the experiment with A549, in the experiment on LXFL 529 and in the experiment with K562 was > 100 µM (inactive) throughout. Besides, the GI50 in the experiment with TK-10, with SF-295 and in the experiment on SK-OV-3 was > 100 µM (inactive) throughout.

Consider `CCc1ccc(/C=C\c2cc(OC)c(OC)c(OC)c2)cc1`, for which the GI50 is 0.18 µM (active) in the experiment with BT-549; < 0.0196 µM (active) with 786-0; 0.617 µM (active) in the experiment on OVCAR-4; 0.00286 µM (active) in the experiment on NCI/ADR-RES; 0.0122 µM (active) in the experiment with COLO 205; 0.0502 µM (active) in the experiment with M14. For the same compound, the GI50 was 0.0452 µM (active) with KM12; 0.00908 µM (active) in the experiment on RXF 393; 0.0107 µM (active) in the experiment on HCT-116; 0.00998 µM (active) in the experiment with CCRF-CEM; 0.00168 µM (active) in the experiment with MDA-N; 0.124 µM (active) in the experiment on Malme-3M. For the same compound, the GI50 is 0.043 µM (active) in the experiment with MOLT-4; 0.0132 µM (active) in the experiment with LOX IMVI; 0.0223 µM (active) with A549; 0.211 µM (active) in the experiment on LXFL 529; 0.00845 µM (active) with K562; 0.337 µM (active) in the experiment with TK-10. For the same compound, the GI50 in the experiment with SF-295 is 0.00631 µM (active); in the experiment on SK-OV-3, 0.013 µM (active).
